Measurements taken from ChEMBL document CHEMBL1201862, “PubChem BioAssay data set” (2004).
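All cell lines were grown in 96-well plates and treated with compound for 48 hours. The concentration for 50% growth inhibition is given as GI50.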 The source made the active and inactive calls. Cut-off read from the data, not from the text of the source: active = GI50 up to about 1.1 µM and inactive = higher.

How the values were obtained:
Assay in all cases: inhibition of tumour cell growth, NCI panel, 48 h
HCT-116 = test system: HCT-116
DU-145 = test system: DU-145
MDA-MB-435 = test system: MDA-MB-435
SF-539 = test system: SF-539
CAKI-1 = test system: CAKI-1
U-251 = test system: U-251
A498 = test system: A498
HCC 2998 = test system: HCC 2998
PC-3 = test system: PC-3
CCRF-CEM = test system: CCRF-CEM
LOX IMVI = test system: LOX IMVI
786-0 = test system: 786-0
NCI-H23 = test system: NCI-H23
MDA-MB-231 = test system: MDA-MB-231
Hs-578T = test system: Hs-578T
HOP-62 = test system: HOP-62
OVCAR-4 = test system: OVCAR-4
SNB-19 = test system: SNB-19
RPMI-8226 = test system: RPMI-8226
SR = test system: SR

Row | SMILES | GI50 (HCT-116) | GI50 (DU-145) | GI50 (MDA-MB-435) | GI50 (SF-539) | GI50 (CAKI-1) | GI50 (U-251) | GI50 (A498) | GI50 (HCC 2998) | GI50 (PC-3) | GI50 (CCRF-CEM) | GI50 (LOX IMVI) | GI50 (786-0) | GI50 (NCI-H23) | GI50 (MDA-MB-231) | GI50 (Hs-578T) | GI50 (HOP-62) | GI50 (OVCAR-4) | GI50 (SNB-19) | GI50 (RPMI-8226) | GI50 (SR)
1 | CCOC(=O)c1c(C)[n+]([O-])c2cc(Cl)c(Cl)cc2[n+]1[O-] | 18.9 µM (inactive) | 16.6 µM (inactive) | 18.6 µM (inactive) | 26.1 µM (inactive) | 18 µM (inactive) | 32.1 µM (inactive) | 20.3 µM (inactive) | 13.7 µM (inactive) | 26.9 µM (inactive) | 18.5 µM (inactive) | 15.3 µM (inactive) | 28.3 µM (inactive) | 10.7 µM (inactive) | 21.1 µM (inactive) | 24.1 µM (inactive) | 21 µM (inactive) | 17.5 µM (inactive) | 36.8 µM (inactive) | 14.4 µM (inactive) | 8.02 µM (inactive)
2 | O=C1OCC2=C1C(c1ccc3c(c1)OCO3)c1cc3c(cc1O2)OCO3 (stereo unspecified) | 0.436 µM (active) | 1.64 µM (inactive) | 0.0708 µM (active) | 0.522 µM (active) | 0.807 µM (active) | 0.583 µM (active) | 1.98 µM (inactive) | 4.42 µM (inactive) | 0.59 µM (active) | 0.667 µM (active) | 0.507 µM (active) | 0.785 µM (active) | 1.29 µM (inactive) | 0.813 µM (active) | 0.865 µM (active) | 0.851 µM (active) | 7.94 µM (inactive) | 2.1 µM (inactive) | 0.378 µM (active) | 0.19 µM (active)
3 | Oc1c(Br)cc(/C=C/c2ccnc(/C=C/c3cc(Br)c(O)c(Br)c3)c2)cc1Br | 17 µM (inactive) | 20.4 µM (inactive) | 26.7 µM (inactive) | 18.5 µM (inactive) | 35.5 µM (inactive) | 15.2 µM (inactive) | 18.9 µM (inactive) | 25.8 µM (inactive) | 16.4 µM (inactive) | 22.6 µM (inactive) | 29.2 µM (inactive) | 18.2 µM (inactive) | – | 21.9 µM (inactive) | 54.2 µM (inactive) | 34.4 µM (inactive) | 30.3 µM (inactive) | 35.8 µM (inactive) | 20.7 µM (inactive) | 17.8 µM (inactive)
4 | COc1cc2[nH]c3c(c2cc1OC)CCN[C@@]31CC[C@@]2(CC3c4c(cc(OC)c(O)c42)CCN3C)C[C@@H]1OC (stereo partly specified) | 28.6 µM (inactive) | > 81.3 µM (inactive) | 18.6 µM (inactive) | 14.9 µM (inactive) | 35.6 µM (inactive) | 29.2 µM (inactive) | 32 µM (inactive) | 31.9 µM (inactive) | 48.6 µM (inactive) | 27.2 µM (inactive) | 18.8 µM (inactive) | 50.7 µM (inactive) | > 79.1 µM (inactive) | 28.1 µM (inactive) | 19.7 µM (inactive) | 62.8 µM (inactive) | 29 µM (inactive) | > 81.1 µM (inactive) | 25.2 µM (inactive) | 12.5 µM (inactive)
5 | CSC(SC)=C(C#N)C(=O)Nc1ccc(Cl)cc1 | 29.1 µM (inactive) | 74.6 µM (inactive) | 69.2 µM (inactive) | 27.7 µM (inactive) | 22 µM (inactive) | 91 µM (inactive) | 10.6 µM (inactive) | > 100 µM (inactive) | 54.2 µM (inactive) | 20.6 µM (inactive) | 23.1 µM (inactive) | 31.7 µM (inactive) | 30.2 µM (inactive) | > 100 µM (inactive) | > 100 µM (inactive) | – | 29.9 µM (inactive) | 68.1 µM (inactive) | 26.4 µM (inactive) | 38.1 µM (inactive)
6 | Cc1ccc2c(c1)Sc1ccc(/N=N/N(C)C)cc1N2C | > 100 µM (inactive) | > 100 µM (inactive) | > 100 µM (inactive) | – | > 100 µM (inactive) | > 100 µM (inactive) | > 100 µM (inactive) | > 100 µM (inactive) | 71.1 µM (inactive) | 46 µM (inactive) | 35.8 µM (inactive) | > 100 µM (inactive) | > 100 µM (inactive) | > 100 µM (inactive) | > 100 µM (inactive) | > 100 µM (inactive) | > 100 µM (inactive) | > 100 µM (inactive) | 59.4 µM (inactive) | 52.8 µM (inactive)
7 | O=P(c1ccccc1)(c1ccccc1)c1ccc2c(c1)OCCOCCOCCOCCO2 | > 100 µM (inactive) | > 100 µM (inactive) | > 100 µM (inactive) | > 100 µM (inactive) | > 100 µM (inactive) | – | > 100 µM (inactive) | > 100 µM (inactive) | > 100 µM (inactive) | > 100 µM (inactive) | > 100 µM (inactive) | > 100 µM (inactive) | > 100 µM (inactive) | > 100 µM (inactive) | > 100 µM (inactive) | > 100 µM (inactive) | – | > 100 µM (inactive) | > 100 µM (inactive) | > 100 µM (inactive)
8 | O=C1OC2C=CCC1C2 (stereo unspecified) | > 100 µM (inactive) | > 100 µM (inactive) | > 100 µM (inactive) | > 100 µM (inactive) | > 100 µM (inactive) | > 100 µM (inactive) | > 100 µM (inactive) | > 100 µM (inactive) | > 100 µM (inactive) | > 100 µM (inactive) | > 100 µM (inactive) | > 100 µM (inactive) | > 100 µM (inactive) | > 100 µM (inactive) | > 100 µM (inactive) | > 100 µM (inactive) | – | > 100 µM (inactive) | > 100 µM (inactive) | > 100 µM (inactive)
9 | O=C(O)CCC(O)=C1S(=O)(=O)OCCOS1(=O)=O | > 100 µM (inactive) | > 100 µM (inactive) | > 100 µM (inactive) | > 100 µM (inactive) | > 100 µM (inactive) | > 100 µM (inactive) | > 100 µM (inactive) | > 100 µM (inactive) | > 100 µM (inactive) | – | > 100 µM (inactive) | > 100 µM (inactive) | > 100 µM (inactive) | > 100 µM (inactive) | > 100 µM (inactive) | > 100 µM (inactive) | > 100 µM (inactive) | > 100 µM (inactive) | > 100 µM (inactive) | 43.7 µM (inactive)
10 | Cc1cc(-c2nc3cccc(F)c3s2)ccc1N | > 52.7 µM (inactive) | > 73.5 µM (inactive) | > 61.4 µM (inactive) | > 100 µM (inactive) | > 59.6 µM (inactive) | > 68.2 µM (inactive) | > 58.6 µM (inactive) | > 37.1 µM (inactive) | > 65.8 µM (inactive) | 8.04 µM (inactive) | > 63.2 µM (inactive) | > 56.2 µM (inactive) | – | 98.9 µM (inactive) | > 54.2 µM (inactive) | > 100 µM (inactive) | > 27.2 µM (inactive) | > 80.2 µM (inactive) | > 52.6 µM (inactive) | 2.52 µM (inactive)
11 | Nc1ccc(-c2nc3ccc(F)cc3s2)cc1Cl | – | > 100 µM (inactive) | > 100 µM (inactive) | 53.5 µM (inactive) | > 78.5 µM (inactive) | > 65.5 µM (inactive) | 0.402 µM (active) | 0.0869 µM (active) | > 100 µM (inactive) | 5.57 µM (inactive) | > 73.1 µM (inactive) | > 61.1 µM (inactive) | > 82 µM (inactive) | > 55.3 µM (inactive) | 32.9 µM (inactive) | 26.9 µM (inactive) | 0.0174 µM (active) | > 62.2 µM (inactive) | > 100 µM (inactive) | > 100 µM (inactive)
